Results as given in PubChem BioAssay AID1963871 (Molecular Pharmacology Branch, DTP, NCI, 2024).
pIC50: −log10 of the molar value.

System: KRAS-mutant PDC multicell tumor spheroid viability
Experiment: Anticancer human tumor 521955-158-R2-J5-PDC patient-derived pancreatic carcinoma cell line growth inhibition [KRAS2]
Conditions: for pIC50: curve of first compound; for viability, T/C: stronger effect = lower value
From the text: Multicellular complex tumor spheroid response to RAS pathway inhibitors in combination with a targeted agents in patient-derived cell lines with oncogenic KRAS variants from multiple cancer types
A high-throughput screen of multi-cell type tumor spheroids was designed to identify active combinations of targeted small molecules and KRAS pathway inhibitors. Complex spheroids include a stromal component modeled by human endothelial cells (HUVEC) and fibroblasts modeled by human mesenchymal stem cells (MSCs). The concentration ranges selected for each drug and investigational agent were based upon clinically achievable concentrations if the clinical Cmax of the agent was known.
Compounds. The drugs and investigational agents: BI-3406 (NSC825286), BAY-293 (NSC824723), batoprotafib (TNO155; NSC825523), sotorasib (AMG 510; NSC818433), MRTX1257 (NSC819558), elimusertib (BAY 1895344; NSC800525), molibresib (GSK525762; NSC774829), temuterkib (LY3214996; NSC803410), venetoclax (NSC766270), alisertib (NSC759677), olaparib (NSC753686), talazoparib (NSC767125), erdafitinib (NSC781556), ipatasertib (NSC767898), cabozantinib (NSC761068), nintedanib (NSC756659), abemaciclib (NSC768073), docetaxel (NSC628503), trametinib (NSC758246), and sapanisertib (NSC764658) were obtained from the National Cancer Institute (NCI) Developmental Therapeutics Program Chemical Repository. The FDA-approved anticancer drug set is available from the Developmental Therapeutics Program. […] The stock solutions were prepared in dimethyl sulfoxide (DMSO, Sigma-Aldrich, St. Louis, MO, cat. D2650) at 800-fold the tested concentration and stored at -70 degrees C prior to their use. All drugs and investigational agents were tested over a range starting from a high concentration at or near the clinical Cmax and decreasing in half-log increments. If the clinical Cmax for an agent had not been determined, the highest concentration tested was 10 microM.
Cell Culture. All cells were maintained in an incubator at 37 degrees C and 5% CO2 with 95% humidity. The PDC lines were cultured according to standard operating procedures established by the NCI PDMR (https://pdmr.cancer.gov/sops/default.htm). Briefly, all PDCs were thawed and cultured in Matrigel-coated flasks prepared with a working solution of 1X Ham's F-12 nutrient mix, without supplementation (Invitrogen, Waltham, MA, cat. 11765054), 100 U/mL penicillin-streptomycin (Invitrogen, cat. 15140122), and 2.5% Matrigel (Corning Inc., Corning, NY, cat. 354248) for the first three passages. All PDCs were cultured in complete DMEM/F-12 media containing advanced DMEM/F-12 (Invitrogen, cat. 12634028), 4.9% defined fetal bovine serum, heat inactivated (HyClone Laboratories Inc., Logan, UT, cat. SH30070.03HI), 389 ng/mL hydrocortisone (Sigma-Aldrich, cat. H4001), 9.7 ng/mL human EGF recombinant protein (Invitrogen, cat. PHG0313), 23.4 microg/mL adenine (Sigma-Aldrich, cat. A2786), 97.3 U/mL penicillin-streptomycin (Invitrogen, cat. 15140122), 1.9 mM L-glutamine (Invitrogen, cat. 25030081), and 9.7 microM Y-27632 dihydrochloride (Tocris Bioscience, Bristol, United Kingdom, cat. 1254). The PDCs were cultured in complete DMEM/F12 media without 9.7 microM Y-27632 dihydrochloride for at least two passages prior to the screen. The established cell line HOP-62 was cultured in RPMI 1640 medium, HEPES (Invitrogen, cat. 22400105) with 10% defined fetal bovine serum (HyClone Laboratories Inc., cat. SH30070.03) and 2 mM L-glutamine (Invitrogen, cat. 25030081). The pooled donor HUVEC were cultured in endothelial cell growth medium 2 (PromoCell, Heidelberg, Germany, cat. C-22011) and the hMSC were cultured in mesenchymal stem cell growth medium 2 (PromoCell, cat. C-28009). For all experiments, HUVEC and hMSC were used at passages </=5, while the malignant cell lines were used at passages </=15. […]

[1] = second compound 0.1 µM, first compound 0.0316 µM
[2] = second compound 0.1 µM, first compound 0.1 µM
[3] = second compound 0.1 µM, first compound 0.316 µM
[4] = second compound 0.1 µM, first compound 1 µM
[5] = second compound 0.1 µM, first compound 3.16 µM
[6] = second compound 0.1 µM, first compound 10 µM
[7] = second compound 0.316 µM, first compound 0.0316 µM
[8] = second compound 0.316 µM, first compound 0.1 µM
[9] = second compound 0.316 µM, first compound 0.316 µM
[10] = second compound 0.316 µM, first compound 1 µM
[11] = second compound 0.316 µM, first compound 3.16 µM
[12] = second compound 0.316 µM, first compound 10 µM
[13] = second compound 1 µM, first compound 0.0316 µM
[14] = second compound 1 µM, first compound 0.1 µM
[15] = second compound 1 µM, first compound 0.316 µM
[16] = second compound 1 µM, first compound 1 µM
[17] = second compound 1 µM, first compound 3.16 µM
[18] = second compound 1 µM, first compound 10 µM
[19] = second compound 3.16 µM, first compound 0.0316 µM
[20] = second compound 3.16 µM, first compound 0.1 µM
[21] = second compound 3.16 µM, first compound 0.316 µM
[22] = second compound 3.16 µM, first compound 1 µM
[23] = second compound 3.16 µM, first compound 10 µM
[24] = second compound 10 µM, first compound 0.0316 µM
[25] = second compound 10 µM, first compound 0.1 µM
[26] = second compound 10 µM, first compound 0.316 µM
[27] = second compound 10 µM, first compound 1 µM
[28] = second compound 10 µM, first compound 3.16 µM
[29] = second compound 10 µM, first compound 10 µM
[30] = second compound 0.1 µM, first compound 0.01 µM
[31] = second compound 0.316 µM, first compound 0.01 µM
[32] = second compound 1 µM, first compound 0.01 µM
[33] = second compound 3.16 µM, first compound 0.01 µM
[34] = second compound 10 µM, first compound 0.01 µM
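Also: viability read after seven days of drug exposure.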

Row | Compound | pIC50 (second compound 0.1 µM) | pIC50 (second compound 0.316 µM) | pIC50 (second compound 1 µM) | pIC50 (second compound 3.16 µM) | pIC50 (second compound 10 µM) | viability, T/C [1] | viability, T/C [2] | viability, T/C [3] | viability, T/C [4] | viability, T/C [7] | viability, T/C [8] | viability, T/C [9] | viability, T/C [10] | viability, T/C [13] | viability, T/C [14] | viability, T/C [15] | viability, T/C [16] | viability, T/C [19] | viability, T/C [20] | viability, T/C [21] | other results
1 | CC(C)NCC(C(=O)N1CCN(c2ncnc3c2C(C)CC3O)CC1)c1ccc(Cl)cc1 (configuration not stated) + C=CC(=O)N1CCN(c2nc(=O)n(-c3c(C)ccnc3C(C)C)c3nc(-c4c(O)cccc4F)c(F)cc23)C(C)C1 | < 5.00 | < 5.00 | < 5.00 | 6.53 | 6.87 | 102% | 105% | 77.7% | 78% | 116% | 100% | 74.4% | 64.4% | 106% | 94.9% | 64.1% | 54.5% | 94.8% | 82.8% | 46.5% | viability, T/C [5]: 76.5%; viability, T/C [6]: 67%; viability, T/C [11]: 65.3%; viability, T/C [12]: 58.6%; viability, T/C [17]: 58.2%; viability, T/C [18]: 53.2%; viability, T/C [22]: 43.2%; viability, T/C [23]: 31%; viability, T/C [24]: 69.5%; viability, T/C [25]: 56.2%; viability, T/C [26]: 32.1%; viability, T/C [27]: 19.7%; viability, T/C [28]: 19.2%; viability, T/C [29]: 13.2%
2 | CC1COCCN1c1cc(-c2ccnn2C)c2ccnc(-c3ccn[nH]3)c2n1 (configuration not stated) + C=CC(=O)N1CCN(c2nc(=O)n(-c3c(C)ccnc3C(C)C)c3nc(-c4c(O)cccc4F)c(F)cc23)C(C)C1 | 7.52 | 7.39 | 7.52 | 7.61 | 7.94 | 47.9% | 10.5% | 13.5% | 24.1% | 58.5% | 11.4% | 13% | 20.3% | 47.6% | 10.5% | 13.6% | 25.6% | 41.3% | 11.6% | 13.7% | viability, T/C [30]: 101%; viability, T/C [5]: 26.9%; viability, T/C [31]: 114%; viability, T/C [11]: 28%; viability, T/C [32]: 102%; viability, T/C [17]: 29%; viability, T/C [33]: 79.2%; viability, T/C [22]: 22.6%; viability, T/C [34]: 54.1%; viability, T/C [24]: 18.1%; viability, T/C [25]: 13.2%; viability, T/C [26]: 18.1%; viability, T/C [27]: 23.4%; viability, T/C [28]: 25.5%
3 | CCN1CCN(Cc2ccc(Nc3ncc(F)c(-c4cc(F)c5nc(C)n(C(C)C)c5c4)n3)nc2)CC1 + C=CC(=O)N1CCN(c2nc(=O)n(-c3c(C)ccnc3C(C)C)c3nc(-c4c(O)cccc4F)c(F)cc23)C(C)C1 | < 6.00 | < 6.00 | < 6.00 | < 6.00 | < 6.00 | 110% | 100% | 122% | 97.2% | 91.1% | 101% | 117% | 109% | 94.5% | 95.5% | 113% | 96.7% | 91.8% | 80.5% | 88.4% | viability, T/C (second compound 0.1 µM, first compound 0.00316 µM): 113%; viability, T/C [30]: 100%; viability, T/C (second compound 0.316 µM, first compound 0.00316 µM): 114%; viability, T/C [31]: 108%; viability, T/C (second compound 1 µM, first compound 0.00316 µM): 112%; viability, T/C [32]: 108%; viability, T/C (second compound 3.16 µM, first compound 0.00316 µM): 89.2%; viability, T/C [33]: 99.4%; viability, T/C [22]: 88.8%; viability, T/C (second compound 10 µM, first compound 0.00316 µM): 81%; viability, T/C [34]: 88.3%; viability, T/C [24]: 89.4%; viability, T/C [25]: 74.6%; viability, T/C [26]: 66.7%; viability, T/C [27]: 50.7%
4 | CCNC(=O)CC1N=C(c2ccc(Cl)cc2)c2cc(OC)ccc2-n2c(C)nnc21 (configuration not stated) + C=CC(=O)N1CCN(c2nc(=O)n(-c3c(C)ccnc3C(C)C)c3nc(-c4c(O)cccc4F)c(F)cc23)C(C)C1 | 6.32 | 5.93 | 5.96 | 6.13 | 6.77 | 99.4% | 93.4% | 55.3% | 41.1% | 119% | 98.4% | 72.2% | 50% | 120% | 109% | 77% | 52.3% | 101% | 86.7% | 63% | viability, T/C [5]: 39.9%; viability, T/C [6]: 35.7%; viability, T/C [11]: 43.7%; viability, T/C [12]: 37.1%; viability, T/C [17]: 38.9%; viability, T/C [18]: 35.8%; viability, T/C [22]: 45.4%; viability, T/C (second compound 3.16 µM, first compound 3.16 µM): 39.1%; viability, T/C [23]: 37.5%; viability, T/C [24]: 66.5%; viability, T/C [25]: 58.6%; viability, T/C [26]: 39.4%; viability, T/C [28]: 29%; viability, T/C [29]: 31.1%
